How the values were obtained:
Assay type in all cases: in vivo, human
painful left knee = test: Example 10: acute knee pain after physical trauma
Source text: A subject with painful left knee gave a history of physical trauma to the left knee while cleaning their house. Degree of pain was sufficiently intense that it required them to wear a knee brace throughout the day, daily. […] The subject was provided a formulation of N-acetyl ethyl creatinate 1.5% dissolved in water: propylene glycol 8:2 for topical application.

[1] = test system: rheumatoid arthritis; rheumatoid nodule; test: Example 13: rheumatoid arthritis fingers, nodule injection and glove application; conditions: left hand only
Experimental: A subject noted changes in their fingers that appeared to be compatible with the diagnosis of early rheumatoid arthritis in autumn of the year. At about one month later there appeared over the terminal interphalangeal joint of the left third finger a raised inflammatory nodule compatible with the diagnosis of a rheumatoid nodule. The nodule was injected with 0.15 ml of a 2% aqueous solution/suspension of creatine monohydrate once weekly for four injections. […] Thereafter, for a period of one month, the subject wore a nitrile glove containing a few drops N-acetyl ethyl creatine 3% dissolved in water: propylene glycol 8:2 for about an hour twice daily on the left hand only.

[2] = test system: osteoarthritis of the knees; test: Example 24: osteoarthritis, knees
Source text: Several days later, a repeated application of the same procedure gave the same results.

psoriatic arthritis = test: Example 25: psoriatic arthritis, topical C15
Source text: A subject with a 42 year history of psoriasis, and psoriatic arthritis for the past 8 years, was provided a topical solution of C15 4% in WP 82. […] The subject has used topical formulations of C15 for over 12 weeks, comparing efficacy of 2%, 3.5% and 5% concentrations of C15.

[3] = test system: Rheumatoid Arthritis (RA); test: Example 26: rheumatoid arthritis, intralesional injection and topical; conditions: 3-9% in WP 82 in nitrile gloves, 1 hour twice daily, after the creatine injections
Experimental: A subject, described in an earlier Example, after approximately 4 months of worsening symptoms, and finger joint enlargements on both hands, realized that they were rapidly developing RA, especially when a rheumatoid nodule enlarged over the terminal joint of the left […] finger to a size of approximately 1 cm in diameter, and about 3 mm thick. The nodule was initially injected with 0.15 ml of a 2% aqueous solution/suspension of creatine monohydrate once weekly for 4 injections. […] Thereafter the subject wore a nitrile glove containing a few drops of C15 3-9% dissolved in WP 82 for an hour twice daily on the left hand only. After another 2 months C15 9% in WP 82 was topically applied by means of their wearing nitrile gloves containing the C15 solution for 1 hour twice daily. […] It is intended for the subject to continue topical treatment in one form or another for an indefinite time forward.

[4] = test system: pruritic urticarial mosquito bite lesions; test: Example 28: mosquito bite itch
Experimental: Six subjects, 2 males and 4 females, age 31-74 years, who had gathered for a back yard cookout, suffered multiple mosquito bites. One subject carried 2 ounces of C15 6% in WEP 532 shared with the five others for topical application to the pruritic urticarial mosquito bite lesions.
This solution was later applied to an intensely pruritic urticarial lesion, 1 cm in diameter, due to a mosquito bite. […] Clinical evidence of the lesion began to fade about 3 minutes later, and at 5 minutes the subject had no sensory awareness of the lesion as it disappeared over the next 10-15 minutes.

[5] = test system: migraine headaches and associated symptoms; test: Example 29: migraine headache
Experimental: A subject, with a history of migraine headaches and associated symptoms, presented with a recurrent episode of such that had begun during their night of sleep. Symptoms included an intense frontal headache, and feeling of light dizziness, and nausea when they turned their head. They were provided a 9% solution of C15 dissolved in WEP 532 to be applied to the forehead and temporal areas as needed to relieve symptoms. […] Relief lasted for 1-4 hours during the first day of use, and during the second day of use, the subject experienced a much longer period of relief of symptoms.

[6] = test system: dermatitis of uncertain etiology; test: Example 32: itch of dermatitis of uncertain etiology
Experimental: subject one who had worked planting a new rock and flower garden during the day, in the evening became acutely aware of an itch sensation in the lower back, just below the beltline. […] Itch relief lasted for 2-3 hours; three additional applications were made during the night. […] Etiology was not ascertained.

post trauma pain = test: Example 33: post trauma pain of hand
Source text: A subject was provided a 9% solution of C15 in WEP 532 for possible use against itch or pain. Several weeks later they sent by e-mail the following message:
“Yesterday I slammed the top of my hand accidentally against a door. That really hurt and I could barely move my hand. Started to ice it and then realized that I had decided to keep one bottle of the pain medicine here at the shore. […] Like a miracle. Iced it after as I could tell a welt was forming. Again at bedtime I put a little of the pain med on it in case the earlier application wore off and iced again as it was a bit swollen. Looked red and maybe a little swollen this morning but no pain!”

[7] = test system: burning itch induced by Mucuna pruriens spicules; test: Example 38: burning itch induced by Mucuna pruriens; conditions: 10% in lotion
Experimental: Pods with beans were obtained from Afro Caribe Botanica, 16 separate specimens. Small round brushes marketed for interdental cleaning were used to collect spicules from the pods. Application to both volar and extensor surfaces of the forearm were made by intense rubbing of the skin with such brush containing spicules. Burning itch developed within 5-7 minutes. […] Participants in this study included the following; • 1. A person. • 2. A person. • 3. A person. • 4. A person. • 5. A person.

Which results are given for `CCOC(=O)CN(C)C(N)=NC(C)=O` [Compound C15, N-acetyl ethyl creatinate]?
time to pain relief after application (painful left knee; 1.5% in water: propylene glycol 8:2, topical): about 2 minutes; extent of pain relief (painful left knee; 1.5% in water: propylene glycol 8:2, topical, person): pain in the knee completely vanished; recurrence of pain (painful left knee; at report 10 days later): Pain had not recurred; pain on making a fist ([1]; 3% in glove): the left fist was pain free whereas the right fist was substantially painful; size of tight fist ([1]; 3% in glove): the size of the left fist was visibly smaller than that of the right; flexibility of hand and fingers ([1]; 3% in glove, right hand restricted): The left hand and fingers were completely flexible; feel of treated left hand vs untreated right hand ([1]; 3% in water: propylene glycol 8:2 in nitrile glove, about an hour twice daily, one month, after another two months): feel much better than the right hand; duration of pain relief ([2]; 8% in WP 82, even with occlusion, person, severe osteoarthritis): 3 to 4 h; extent of pain relief ([2]; 8% in WP 82 on gauze wrapping occluded with plastic wrap, overnight, person): complete relief of pain; duration of complete relief (sleep) ([2]; 8% with occlusion overnight): 8 h; diminishment of pain after removal in the morning ([2]; 8% with occlusion, person): 85-90%; duration of diminishment after removal ([2]; 8% with occlusion, person): 7 to 8 h; duration of relief (psoriatic arthritis; 4% in WP 82): 6 to 24 h; relief of pain (psoriatic arthritis; 4% in WP 82, topical to wrists, hands, fingers and ankles, person): almost instantaneous, complete relief of pain; comparison of 2%, 3.5% and 5% concentrations (psoriatic arthritis; 5% administered as a spray mist): most effective of the three; duration of complete pain relief (psoriatic arthritis; 5% spray mist): 24 h; appearance of hands after 9 months of treatments [3]: both hands appear to be completely normal; extent of itch relief ([4]; 6% in WEP 532, topical, six subjects): itch was completely eradicated; extent of itch relief ([4]; 6% in WEP 532, person one, lesion 1 cm): all itch sensation was gone and did not return; time to eradication of itch ([4]; 6% in WEP 532, six subjects): about 1 minute; time to loss of itch sensation ([4]; person one): ≤ 1 min; time until lesion began to fade, after itch relief ([4]; person one): about 3 minutes; time of disappearance of lesion ([4]; person one, counted from 5 minutes): 10 to 15 min; return of itch ([4]; six subjects): No itch returned; relief of symptoms ([5]; 9% in WEP 532, to forehead and temporal areas): relieved symptoms within a few minutes; duration of relief ([5]; first day of use): 1 to 4 h; symptoms at end of third day ([5]; following 3 more applications): symptoms were no longer detectable; follow-up ([5]; next week): remained symptoms free over the next week of follow-up; extent of itch relief ([6]; 4% in water: propylene glycol 8:2, topical): Itch was completely relived; duration of itch relief ([6]; 4% topical): 2 to 3 h; resolution of dermatitis and itch ([6]; three additional applications during the night): The dermatitis and itch resolved early next day; relief of pain (post trauma pain; 9% in WEP 532, topical to hand): in a minute or two the pain went away; pain next morning (post trauma pain; second application at bedtime): no pain; persistence of relief [7]: permanent; time to complete relief of itch [7]: 1 to 2 min; extent of itch relief ([7]; forearm, five participants): complete relief of itch
